This note sets out measurements from US20240025856A1, “1,2,3,4-TETRAHYDROQUINOLINE DERIVATIVES AS INHIBITORS OF THE YAP/TAZ-TEAD ACTIVATION FOR TREATING CANCER” (KATHOLIEKE UNIVERSITEIT LEUVEN, priority 2020, published 2024).

The test system of the first test is YAP/TAZ-TEAD transcription. The experiment in a line: Reporter gene assay for measuring the inhibition of YAP/TAZ-TEAD transcription (TEAD-responsive element luciferase reporter in Hek293T cells). The settings on record: Hek293T cells transiently transfected with TEAD-responsive element luciferase reporter; 24 hours incubation. Format: cell-based. Here is the method:
Hek293T cells are cultured in DMEM supplemented with 10% fetal bovine serum, Sodium pyruvate, Sodium bicarbonate, L-glutamine. The cells are harvested and transiently transfected with TEAD-responsive element luciferase reporter. Transfected cells are plated in 384-wells plate containing pre-diluted compounds. After 24 hours incubation at 37° C./5% CO2, assay plates were cooled down to RT and levelled to an equal volume per well, prior to the addition of 25 uL luciferase substrate SteadyLite (Perkin Elmer)/well. The plate was shaken for 10 min at 600 rpm, centrifuged for 1 min at 500 rpm and measured with an Envision reader (PerkinElmer). The amount of relative light units produced by the TEAD reporter is used to calculated percent of inhibition. The percent of reporter inhibition was calculated in the presence of a positive control inhibitor (100% inhibition) versus a condition with the presence of the vehicle basal activity of the reporter (0% inhibition). The ability of a test compound to inhibit this activity was determined as: Percentage inhibition=[[…]((RLU determined in the presence of vehicle−RLU determined for sample with test compound present) divided by (RLU determined in the presence of vehicle−RLU determined for sample with positive control inhibitor))]*100
The activities of example compounds tested are depicted in the table below. The activity ranges A, B and C refer to IC50 values in the reporter gene assay as follows: “A”: IC50<1 μM; “B”: 1 μM≤IC50≤20 μM and “C”: IC50>20 μM; NT=not tested.
On the technique in general: A reporter such as luciferase makes a cellular process visible.
For `C=CC(=O)NCC1Cc2c(C(=O)NS(C)(=O)=O)cccc2N(c2ccc(C(F)(F)F)cc2)C1` (single isomer, unassigned) [157-En1, (R)- or (S)-3-(acrylamidomethyl)-N-(methylsulfonyl)-1-(4-(trifluoromethyl)phenyl)-1,2,3,4-tetrahydroquinoline-5-carboxamide], the IC50 (usually the midpoint of a concentration-inhibition curve) is above 20 µM.
In turn, `C=CC(=O)NCC1Cc2c(Cc3noc(=O)[nH]3)cccc2N(c2ccc(C(F)(F)F)cc2)C1` (centres unmarked) [Cpd. No. 168-En1, N-((5-((5-oxo-4,5-dihydro-1,2,4-oxadiazol-3-yl)methyl)-1-(4-(trifluoromethyl)phenyl)-1,2,3,4-tetrahydroquinolin-3-yl)methyl)acrylamide] registered an IC50 of 1 to 20 µM.
The same measure, in the same setting: the result for `FC(F)(F)c1ccc(N2CC(C3CC(Br)=NO3)Cc3ccccc32)cc1` (single isomer, unassigned) [Cpd. No. 194(Dia2)-En2, 3-bromo-5-(1-(4-(trifluoromethyl)phenyl)-1,2,3,4-tetrahydroquinolin-3-yl)-4,5-dihydroisoxazole] reads below 1 µM.

Still in this test, the particulars now being: Homo sapiens, HEK-293T, 24 h, Hek293T cells transiently transfected with TEAD-responsive element luciferase reporter; 24 hours incubation.
With `N#CCC(=O)NCC1Cc2ccccc2N(c2ccc(C(F)(F)F)cc2)C1` (centres unmarked) [compound 125, 2-cyano-N-((1-(4-(trifluoromethyl)phenyl)-1,2,3,4-tetrahydroquinolin-3-yl)methyl)acetamide], the IC50 is below 1 µM.
Still for that read-out and setting: the result for `C=CC(=O)NCC1Cc2ccccc2N(c2ccc3cc[nH]c3c2)C1` (centres unmarked) [compound 104, N-((1-(1H-indol-6-yl)-1,2,3,4-tetrahydroquinolin-3-yl)methyl)acrylamide] reads below 1 µM; that for `NCC1Cc2ccccc2N(c2ccc(C(F)(F)F)cc2)C1` (centres unmarked) [170 (Int-10), (1-(4-(trifluoromethyl)phenyl)-1,2,3,4-tetrahydroquinolin-3-yl)methanamine], 1 to 20 µM; that for `CC(C)(C)OC(=O)NC1Cc2c(Br)cccc2N(c2ccc(C(F)(F)F)cc2)C1` (centres unmarked) [compound 055, tert-butyl (5-bromo-1-(4-(trifluoromethyl)phenyl)-1,2,3,4-tetrahydroquinolin-3-yl)carbamate], above 20 µM.
Take `C=CC(=O)NCC1Cc2ccccc2N(c2ccc(-c3ccccc3)cc2)C1` (centres unmarked) [compound 092, N-((1-([1,1′-biphenyl]-4-yl)-1,2,3,4-tetrahydroquinolin-3-yl)methyl)acrylamide]: the IC50 was below 1 µM.
On the same count and under the same terms, the result for `C=CC(=O)NC1Cc2ccccc2N(c2ccc3[nH]ccc3c2)C1` (centres unmarked) [compound 016, N-(1-(1H-indol-5-yl)-1,2,3,4-tetrahydroquinolin-3-yl)acrylamide] reads 1 to 20 µM; that for `C=CC(=O)NCC1Cc2ccccc2N(Cc2ccccc2)C1` (centres unmarked) [compound 176, N-((1-benzyl-1,2,3,4-tetrahydroquinolin-3-yl)methyl)acrylamide], below 1 µM; that for `C=CC(=O)NCC1Cc2ccccc2N(c2ccc(C)cc2C)C1` (centres unmarked) [compound 116, N-((1-(2,4-dimethylphenyl)-1,2,3,4-tetrahydroquinolin-3-yl)methyl)acrylamide], below 1 µM.
`C=CC(=O)NCC1Cc2ccccc2N(c2ccccc2)C1` (centres unmarked) [compound 085, N-((1-phenyl-1,2,3,4-tetrahydroquinolin-3-yl)methyl)acrylamide] showed an IC50 below 1 µM.
Same read-out and setting: the result for `CC(C)=CC(=O)NC1Cc2ccccc2N(c2ccc(C(F)(F)F)cc2)C1` (centres unmarked) [compound 038, 3-methyl-N-(1-(4-(trifluoromethyl)phenyl)-1,2,3,4-tetrahydroquinolin-3-yl)but-2-enamide] reads 1 to 20 µM; that for `C=CC(=O)NCC1Cc2ccccc2N(c2ccc(F)c(F)c2)C1` (centres unmarked) [compound 101, N-((1-(3,4-difluorophenyl)-1,2,3,4-tetrahydroquinolin-3-yl)methyl)acrylamide], below 1 µM.
Same read-out and setting: in the case of `C=CC(=O)NCC1Cc2ccccc2N([C@H]2CC[C@@H](C(F)(F)F)CC2)C1` (stereo partly drawn) [compound 144, cis-N-((1-(4-(trifluoromethyl)cyclohexyl)-1,2,3,4-tetrahydroquinolin-3-yl)methyl)acrylamide] it was below 1 µM.
`C=CC(=O)NC1Cc2ccccc2N(Cc2cccc(C(F)(F)F)c2)C1` (centres unmarked) [compound 182, N-(1-(3-(trifluoromethyl)benzyl)-1,2,3,4-tetrahydroquinolin-3-yl)acrylamide] came in with an IC50 below 1 µM.
`CCC(=O)NCC1CCc2ccccc2N1c1ccc(C(F)(F)F)cc1` (centres unmarked) [compound 188, N-((1-(4-(trifluoromethyl)phenyl)-1,2,3,4-tetrahydroquinolin-2-yl)methyl)propionamide] displayed an IC50 above 20 µM.
Still for that read-out and setting: in the case of `C=CC(=O)NC1Cc2c(CN3CCOCC3)cccc2N(c2ccc(C(F)(F)F)cc2)C1` (centres unmarked) [compound 068, N-(5-(morpholinomethyl)-1-(4-(trifluoromethyl)phenyl)-1,2,3,4-tetrahydroquinolin-3-yl)acrylamide] it was below 1 µM.
As for `C=CC(=O)NC1Cc2nc(OC)ccc2N(c2ccc(C(F)(F)F)cc2)C1` (centres unmarked) [Cpd. No. 141, N-(6-methoxy-1-(4-(trifluoromethyl)phenyl)-1,2,3,4-tetrahydro-1,5-naphthyridin-3-yl)acrylamide], the IC50 is below 1 µM.
Same read-out and setting: in the case of `O=S1(=O)CCN1C1Cc2ccccc2N(c2ccc(C(F)(F)F)cc2)C1` (centres unmarked) [compound 050, 2-(1-(4-(trifluoromethyl)phenyl)-1,2,3,4-tetrahydroquinolin-3-yl)-1,2-thiazetidine-1,1-dioxide] it was 1 to 20 µM; in that of `CC(=O)NC/C=C/C(=O)NCC1Cc2ccccc2N(c2ccc(C(F)(F)F)cc2)C1` (centres unmarked) [Cpd. No. 193, (E)-4-acetamido-N-((1-(4-(trifluoromethyl)phenyl)-1,2,3,4-tetrahydroquinolin-3-yl)methyl)but-2-enamide], below 1 µM.
On the same count and under the same terms, in the case of `C=CC(=O)NC1Cc2ccccc2N(Cc2ccccc2)C1` (centres unmarked) [Cpd. No. 174, N-(1-benzyl-1,2,3,4-tetrahydroquinolin-3-yl)acrylamide] it was below 1 µM; in that of `C=CC(=O)NCC1Cc2ccccc2N(c2ccc(C#N)nc2)C1` (centres unmarked) [compound 151, N-((1-(6-cyanopyridin-3-yl)-1,2,3,4-tetrahydroquinolin-3-yl)methyl)acrylamide], below 1 µM.
The same measure, in the same setting: in the case of `C=CC(=O)NCC1Cc2ccccc2N(c2ccc(OC)cc2)C1` (centres unmarked) [compound 091, N-((1-(4-methoxyphenyl)-1,2,3,4-tetrahydroquinolin-3-yl)methyl)acrylamide] it was below 1 µM; in that of `C=CC(=O)NC1Cc2ccccc2N(c2cccc(OC)c2)C1` (centres unmarked) [compound 006, N-(1-(3-methoxyphenyl)-1,2,3,4-tetrahydroquinolin-3-yl)acrylamide], below 1 µM; in that of `C=CC(=O)NCC1Cc2ccccc2N(c2cccc(OC)c2)C1` (centres unmarked) [compound 090, N-((1-(3-methoxyphenyl)-1,2,3,4-tetrahydroquinolin-3-yl)methyl)acrylamide], below 1 µM.
`C=CC(=O)NC1Cc2cnccc2N(c2ccc(C(F)(F)F)cc2)C1` (centres unmarked) [compound 082, N-(1-(4-(trifluoromethyl)phenyl)-1,2,3,4-tetrahydro-1,6-naphthyridin-3-yl)acrylamide] showed an IC50 of 1 to 20 µM.
The same measure, in the same setting: the result for `C=CC(=O)NCC1Cc2ccccc2N(c2cccc(C(C)C)c2)C1` (centres unmarked) [compound 088, N-((1-(3-isopropylphenyl)-1,2,3,4-tetrahydroquinolin-3-yl)methyl)acrylamide] reads below 1 µM; that for `C=CC(=O)NCC1Cc2ccccc2N(c2ccc(OC(F)(F)F)cc2)C1` (centres unmarked) [compound 106, N-((1-(4-(trifluoromethoxy)phenyl)-1,2,3,4-tetrahydroquinolin-3-yl)methyl)acrylamide], below 1 µM.
Compound `C=CC(=O)NC1Cc2ccccc2N(c2ccc3cc[nH]c3c2)C1` (centres unmarked) [compound 017, N-(1-(1H-indol-6-yl)-1,2,3,4-tetrahydroquinolin-3-yl)acrylamide] showed an IC50 below 1 µM.
On the same count and under the same terms, in the case of `C=CC(=O)NCC1Cc2ccccc2N(Cc2cccc(C(F)(F)F)c2)C1` (centres unmarked) [compound 185, N-((1-(3-(trifluoromethyl)benzyl)-1,2,3,4-tetrahydroquinolin-3-yl)methyl)acrylamide] it was below 1 µM; in that of `C=CC(=O)NC1Cc2ccccc2N(Cc2ccc(Br)cc2)C1` (centres unmarked) [compound 191, N-(1-(4-bromobenzyl)-1,2,3,4-tetrahydroquinolin-3-yl)acrylamide], below 1 µM; in that of `N#CC1CN(C2Cc3ccccc3N(c3ccc(C(F)(F)F)cc3)C2)C1=O` (centres unmarked) [compound 042, 2-oxo-1-(1-(4-(trifluoromethyl)phenyl)-1,2,3,4-tetrahydroquinolin-3-yl)azetidine-3-carbonitrile], 1 to 20 µM.
The compound `N#CCNCC1Cc2ccccc2N(c2ccc(C(F)(F)F)cc2)C1` (centres unmarked) [compound 127, 2-(((1-(4-(trifluoromethyl)phenyl)-1,2,3,4-tetrahydroquinolin-3-yl)methyl)amino)acetonitrile] registered an IC50 below 1 µM.
On the same count and under the same terms, the result for `C#CC(=O)NCC1Cc2ccccc2N(c2ccc(C(F)(F)F)cc2)C1` (centres unmarked) [compound 119, N-((1-(4-(trifluoromethyl)phenyl)-1,2,3,4-tetrahydroquinolin-3-yl)methyl)propiolamide] reads below 1 µM.
